Laboratory results: US9585387B1, “PEHAM dendrimers for use in agriculture” (Starpharma Pty Ltd, priority 2009, dated 2017)
In brackets after ≈: the same amount, converted by molar mass.

Tests used:
[1] = Solubility of active constituents in dendrimer solutions by HPLC (Example 26); type: physicochemical
Method: Four PEHAM dendrimers, each at 10 g/L and 100 g/L in water, were used for evaluation. A 15 g of each dendrimer was dissolved in distilled water and made accurately to 150 mL volume. Determination of pH was then made using a calibrated pH meter and electrode.
To prepare saturated solutions of active constituent in 100 g/L dendrimer solutions, 10 mL of each 100 g/L dendrimer solution was placed into a 50 mL test tube and 0.2 g of active constituent was then also added. The test tube was then briefly shaken to disperse the contents, before being placed in an ultrasonic water bath, and subjected to sonication for 30 mins at […] The test tube and contents were then cooled to […] and then a 2.0 mL aliquot was taken and filtered through a 0.45 μm PTFE membrane filter.
To prepare saturated solutions of active constituent in 10 g/L dendrimer solutions, 1.0 mL of each 100 g/L dendrimer solution was placed into a 50 mL test tube and a 9.0 mL aliquot of distilled water added and 0.2 g of active constituent was then also added. The test tube was then briefly shaken to disperse the contents, before being placed in an ultrasonic water bath, and subjected to sonication for 30 mins at […] The test tube and contents were then cooled to […] and then a 2.0 mL aliquot was taken and filtered through a 0.45 μm PTFE membrane filter
Each prepared and filtered solution was examined in a light box for Tyndall Scattering (light scattering by particles in a colloid or particles in a fine suspension). A visual observation was made and recorded for each solution. Ten active constituents that were selected to cover a range of water solubility were treated according to the method described here. A total of 200 filtered solutions were prepared.
High Performance Liquid Chromatography was used to analyse each active constituent in each dendrimer solution. Each saturated active constituent solution was freshly prepared for immediate analysis or frozen at <−15° C. where analysis could not take place within 2 hours of preparation. The following are details of the HPLC equipment used. For each active constituent a set of 4 calibration solutions was prepared 0 to 25 ppm. A sequence of injections comparing the peak area of the calibration solutions and the dendrimer solutions was then undertaken. The dendrimer solutions were diluted as required to maintain their respective peak area response within the calibration range. The active constituent concentration (ppm) in the dendrimer solution was determined by calculation: RF×SA×DF, where RF=Response Factor (concentration of calibration solution per unit of peak area, SA=Sample Peak Area (peak area of the sample solution), and DF=Dilution Factor (dilution of the sample solution). HPLC conditions were varied to ensure the optimum detection and separation of each active constituent from excipients.

[2] = test system: Avena sativa (cv. Echidna); experiment: Brownout of oat seedlings after track-sprayer application (Example 21); type: in vivo; conditions: concentrations of 0.1% v/v and above; with GrowChoice 450 g/L glyphosate
Method: The experiment tested whether the addition of dendrimers at various concentrations increased penetration into plant tissue and thus improved the rate of kill utilizing the herbicide glyphosate IPA (GrowChoice® 450 g/L present as the isopropylamine salt). Oats were selected for assessment of glyphosate efficacy because there is less genetic variation. All dosing was carried out at sublethal doses in order to witness a dose effect which is enhanced with dendrimer. A standard dose in the positive control would result in death of the oats and would be presumably replicated in the dendrimer treatments.
Avena sativa (cv. Echidna) was sown in 10 cm diameter pots filled with potting mix (AS 3743). Enough seeds were planted to ensure a minimum of seven seedlings per treatment group. Seeds were germinated in a temperature-controlled greenhouse (14° C.-25° C.) for 7 days. […]
The herbicide, glyphosate IPA (GrowChoice® 450 g/L present as the isopropylamine salt), was applied using an enclosed laboratory track-sprayer fitted with three 110° flat fan nozzles (Teejet XR11001-VS) spaced at 50 cm intervals across the boom. […] A total of 5 concentrations of the Example 2 G1-OH dendrimer (0.01, 0.05, 0.1, 0.2 & 0.5% v/v) were evaluated for enhancement of herbicidal effect at each of the rates of glyphosate tested (35, 70, 140 & 280 g ai/ha).
After 10 days the treated plants were assessed for % brownout. […]

physchem = type: physicochemical; conditions: water; at pH 7; trifluralin control without dendrimer; read-out: Solubility assessment by GC assay
Method: To a 10% w/w solution of agrochemical active dissolved in a suitable volatile organic solvent, (e.g., MeOH, DCM, EtOH, acetone or other appropriate solvent) was added a 10% w/w solution of dendrimer in either water or the same organic solvent as above. The mixture was left to stir for 2-4 h after which time the volatile organic solvent was then removed under reduced pressure to provide a 1:1 mixture of the active and dendrimer. This oily solution was then dissolved in water and filtered. Analysis of active content in the aqueous solution by HPLC or GC assay provided an estimate of the solubility increase due to the addition of the dendrimer.

SMILES | Ratio of Active Ingredient in Dendrimer Solution (ppm) to Active Ingredient in Water (ppm) ([1]; 6-BAP, 10 g/L loading) | Ratio of Active Ingredient in Dendrimer Solution (ppm) to Active Ingredient in Water (ppm) ([1]; 6-BAP, 100 g/L loading) | Ratio of Active Ingredient in Dendrimer Solution (ppm) to Active Ingredient in Water (ppm) ([1]; Bifenthrin, 10 g/L loading) | Ratio of Active Ingredient in Dendrimer Solution (ppm) to Active Ingredient in Water (ppm) ([1]; Bifenthrin, 100 g/L loading) | Ratio of Active Ingredient in Dendrimer Solution (ppm) to Active Ingredient in Water (ppm) ([1]; Clomazone, 10 g/L loading) | Ratio of Active Ingredient in Dendrimer Solution (ppm) to Active Ingredient in Water (ppm) ([1]; Clomazone, 100 g/L loading) | Ratio of Active Ingredient in Dendrimer Solution (ppm) to Active Ingredient in Water (ppm) ([1]; Flumetsulam, 10 g/L loading) | Ratio of Active Ingredient in Dendrimer Solution (ppm) to Active Ingredient in Water (ppm) ([1]; Flumetsulam, 100 g/L loading) | Ratio of Active Ingredient in Dendrimer Solution (ppm) to Active Ingredient in Water (ppm) ([1]; Mcylobutanil, 10 g/L loading) | Ratio of Active Ingredient in Dendrimer Solution (ppm) to Active Ingredient in Water (ppm) ([1]; Mcylobutanil, 100 g/L loading) | Ratio of Active Ingredient in Dendrimer Solution (ppm) to Active Ingredient in Water (ppm) ([1]; Penconazole, 10 g/L loading) | Ratio of Active Ingredient in Dendrimer Solution (ppm) to Active Ingredient in Water (ppm) ([1]; Penconazole, 100 g/L loading) | Ratio of Active Ingredient in Dendrimer Solution (ppm) to Active Ingredient in Water (ppm) ([1]; Pendimethalin, 10 g/L loading) | Ratio of Active Ingredient in Dendrimer Solution (ppm) to Active Ingredient in Water (ppm) ([1]; Pendimethalin, 100 g/L loading) | Ratio of Active Ingredient in Dendrimer Solution (ppm) to Active Ingredient in Water (ppm) ([1]; Propaquizafop, 10 g/L loading) | Ratio of Active Ingredient in Dendrimer Solution (ppm) to Active Ingredient in Water (ppm) ([1]; Propaquizafop, 100 g/L loading) | Ratio of Active Ingredient in Dendrimer Solution (ppm) to Active Ingredient in Water (ppm) ([1]; Thiamethoxam, 10 g/L loading) | Ratio of Active Ingredient in Dendrimer Solution (ppm) to Active Ingredient in Water (ppm) ([1]; Thiamethoxam, 100 g/L loading) | Ratio of Active Ingredient in Dendrimer Solution (ppm) to Active Ingredient in Water (ppm) ([1]; Thidiazuron, 10 g/L loading) | Ratio of Active Ingredient in Dendrimer Solution (ppm) to Active Ingredient in Water (ppm) ([1]; Thidiazuron, 100 g/L loading) | further results
CCC(COCC(O)CN(CC(=O)[O-])CC(=O)[O-])(COCC(O)CN(CC(=O)[O-])CC(=O)[O-])COCC(O)CN(CC(=O)[O-])CC(=O)[O-].[Na+].[Na+].[Na+].[Na+].[Na+].[Na+] (stereo not shown) [Example 10, [(C)=TMPTGE; (FF)=Et; (IF1)=OH; (BR1)=IDA; (TF)=CO2Na; G=1]] | 7 | 448 | 1 | 1 | 1 | 1 | 2 | 2 | 2 | 2 | 2 | 3 | 11 | 2 | 1 | 1 | 2 | 1 | 19 | 40 | 
CCC(COCC(O)CN(CCO)CCO)(COCC(O)CN(CCO)CCO)COCC(O)CN(CCO)CCO (stereo not shown) [Example 2, [(C)=TMPTGE; (FF)=Et; (IF1)=OH; (BR1)=DEA; (TF)=OH; G=1]] | 4 | 967 | 1 | 1 | 1 | 1 | 2 | 4 | 2 | 4 | 2 | 43 | 1 | 6 | 1 | 1 | 2 | 2 | 7 | 39 | rate of brownout [2]: did enhance the rate of brownout
CCC(COCC(O)CN(CCOC)CCOC)(COCC(O)CN(CCOC)CCOC)COCC(O)CN(CCOC)CCOC (stereo not shown) [Example 15, [(C)=TMPTGE; (FF)=Et; (IF1)=OH; (BR1)=DEA; (TF)=OMe; G=1]] | 3 | 475 | 9 | 1 | 1 | 1 | 1 | 2 | 2 | 3 | 2 | 12 | 44 | 41 | 1 | 1 | 2 | 2 | 5 | 17 | 
CCCN(CCC)c1c([N+](=O)[O-])cc(C(F)(F)F)cc1[N+](=O)[O-] [trifluralin] |  |  |  |  |  |  |  |  |  |  |  |  |  |  |  |  |  |  |  |  | solubility (physchem): 0.22 µg/mL (≈ 0.656 µM)
CCC(COCC(O)CN(CCN)CCN)(COCC(O)CN(CCN)CCN)COCC(O)CN(CCN)CCN (stereo not shown) [Example 14, [(C)=TMPTGE; (IF1)=OH; (BR1)=DETA; (TF)=Primary NH2; G=1]] | 10 | 2740 | 1 | 4 | 1 | 1 | 2 | 2 | 3 | 4 | 2 | 6 | 172 | 15 | 1 | 1 | 2 | 1 | 46 | 329 | 
